Key:
K-Ras G12S = molecular target: T1, K-Ras G12S (Homo sapiens, UniProt P01116, G12S); assay: HTRF assay of the K-Ras / SOS1 interaction; format: biochemical; conditions: IC50 (against K-Ras G12D) to IC50 (against K-Ras G12S)
T1 construct: made in house; host or cells: E. coli (e.g., BL21 (DE3))
Procedure, shortened: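 Compounds (duplicates, 10 µM to 0.01 µM) were incubated ≥~10 min with Eu-labelled GST-K-Ras G12S and XL665-labelled His-hSOS1 in HEPES pH 7.4 buffer containing NaCl, DTT, BSA and Igepal. Disruption measured as HTRF emission ratio 665/620 nm, fitted to IC50.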

[1] = molecular target: T2, KRAS protein (His-tagged GDP-loaded G12S 1-169) (Homo sapiens, UniProt P01116, G12S); assay: Covalent modification of KRAS protein, intact-protein LC-MS; format: binding; conditions: 24hrs at room temperature, KRAS protein ~2 µM
T2 construct: His-tagged GDP-loaded G12S 1-169
Procedure: Test compounds are prepared as 10 mM stock solutions in DMSO (Fisher cat#BP231-100). KRAS protein (His-tagged GDP-loaded wildtype 1-169, His-tagged GDP-loaded G12S 1-169 or His-tagged GDP-loaded G12D 1-169) is diluted to ~2 µM in appropriate buffer (e.g., a Hepes buffer at physiological conditions). For testing KRAS modification, compounds are diluted to 50X final test concentration in DMSO in 96-well storage plates. 2 µl of the diluted 50X compounds are added to appropriate wells in the PCR plate (Fisher cat#AB-0800). […] of the stock protein solution is added to each well of the 96-well PCR plate. Reactions are mixed carefully. The plate is sealed well with aluminum plate seal, and stored in drawer at room temperature for 24hrs. 5 µl of 2% formic acid (Fisher cat#A1 17-50) in MilliQ H2O is then added to each well followed by mixing with a pipette. The plate is then resealed with aluminum seal and stored until mass spectrometry analysis.
The extent of covalent modification of KRAS proteins was determined by liquid chromatography electrospray mass spectrometry analysis of the intact proteins on a Thermo Q-Exactive Plus mass spectrometer. 20 µl of sample was injected onto a bioZen 3.6 µm Intact C4 column (Phenomenex cat#00B-4767-AN) placed in a column oven set to 40°C and separated using a suitable LC gradient from -20% to ~60% solvent B. Solvent A was 0.1% formic acid and solvent B was 0.1% formic acid in acetonitrile. HESI source settings were set to 40, 5 and 1 for the sheath, auxiliary and sweep gas flow, respectively. The spray voltage was 4 kV, and the capillary temperature was 320°C. S-lens RF level was 50 and auxiliary gas heater temperature was set to 200°C. The mass spectrometry was acquired using a scan range from 650 to 1750 m/z using positive polarity at a mass resolution of 70,000, AGC target of 1e6 ions and maximum injection time of 250ms. The recorded protein mass spectrum was deconvoluted from the raw data file using Protein Deconvolution v4.0 (Thermo). The protein mass and adduct masses were exported with their peak intensities. The peak intensities for the unmodified and modified protein were used to calculate the percent covalent modification of the KRAS protein based on the following equation: %KRAS protein modification = ((KRAS-compound) / (KRAS) + (KRAS-Compound)) *100.

GP2D cells = assay: Cell proliferation assay (CellTiter-Glo), K-Ras G12D cells; format: cell-based; conditions: GP2D cells (K-Ras G12D); read-out: Inhibition of GP2D Cells (IC50)
Procedure, shortened: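 CellTiter-Glo luminescence, taken roughly 5 days after dosing, measured growth of G12D-mutant GP2D cells in DMEM/2 mM glutamine/10% FBS. Compound dilution series (e.g., 9 points, 3-fold) added the day after plating. Four-parameter fitting gave IC50.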

Compound	Ratio of IC50 KRAS G12D vs. IC50 KRAS G12S (K-Ras G12S)	% G12S Modification at 24 hr. [1]	IC50 (GP2D cells)
N#Cc1c(N)sc2c(F)ccc(-c3c(Cl)cc4c(N5CC6(CCCN(C(=O)n7cncn7)C6)C5)nc(OC[C@@]56CCCN5C[C@H](F)C6)nc4c3F)c12 [Compound A266, 4-(4-(6-(1H-1,2,4-triazole-1-carbonyl)-2,6-diazaspiro[3.5]nonan-2-yl)-6-chloro-8-fluoro-2-(((2R,7aS)-2-fluorotetrahydro-1H-pyrrolizin-7a(5H)-yl)methoxy)quinazolm-7-yl)-2-amino-7-fluorobenzo[b]thiophene-3-carbonitrile]	A (A: indicates that the ratio of IC50 against KrasG12D vs. IC50 against KrasG12S is 1-fold or greater)	+++ (+++ indicates greater than 20% labelling)	1 to 10 µM
C#Cc1c(F)ccc2cccc(-c3ccc4c(N5CCN(C(=O)n6cncn6)CC(F)(F)C5)nc(OC[C@@]56CCCN5C[C@H](F)C6)nc4c3F)c12 [Compound A107, (4-(7-(8-ethynyl-7-fluoronaphthalen-1-yl)-8-fluoro-2-(((2R,7aS)-2-fluorotetrahydro-1H-pyrrolizin-7 a(5H)-yl)methoxy)quinazolin-4-yl)-6,6-difluoro-1 ,4-diazepan-1-yl)(1H-1,2,4-triazol-1-yl)methanone]	A (A: indicates that the ratio of IC50 against KrasG12D vs. IC50 against KrasG12S is 1-fold or greater)	++ (++ indicates between about 1%- 20% labelling)	1 to 10 µM
CC(=O)c1c(F)ccc2cc(O)cc(-c3ccc4c(N5CCCC6(CN(C(=O)n7cncn7)C6)C5)nc(OC[C@@]56CCCN5C[C@H](F)C6)nc4c3F)c12 [Compound A154, 1-(8-(4-(2-(1H-1,2,4-triazole-1-carbonyl)-2,6-diazaspiro[3.5]nonan-6-yl)-8-fluoro-2-(((2R,7aS)-2-fluorotetrahydro-1H-pyrrolizin-7a(5H)-yl)methoxy)quinazolin-7-yl)-2-fluoro-6-hydroxynaphthalen-1-yl)ethan-1-one]	A (A: indicates that the ratio of IC50 against KrasG12D vs. IC50 against KrasG12S is 1-fold or greater)	+++ (+++ indicates greater than 20% labelling)	1 to 10 µM
Nc1nc2c(-c3c(Cl)cc4c(N5CCOC6(CCN(C(=O)n7cncn7)CC6)C5)nc(OCC56CCCN5C[C@H](F)C6)nc4c3F)ccc(F)c2s1 (stereo partly drawn) [Compound A243, (4-(7-(2-amino-7-fluorobenzo[d]thiazol-4-yl)-6-chloro-8-fluoro-2-(((2R)-2-fluorotetrahydro-1H-pyrrolizin-7a(5H)-yl)methoxy)quinazolin-4-yl)-1-oxa-4,9-diazaspiro [5.5]undecan-9-yl)(1H-1,2,4-triazol-1-yl)methanone]	A (A: indicates that the ratio of IC50 against KrasG12D vs. IC50 against KrasG12S is 1-fold or greater)	+++ (+++ indicates greater than 20% labelling)	1 to 10 µM
Nc1nc2c(-c3c(Cl)cc4c(N5CC6(CCCN(C(=O)n7cncn7)C6)C5)nc(OC[C@@]56CCCN5C[C@H](F)C6)nc4c3F)ccc(F)c2s1 [Compound A230, (2-(7-(2-amino-7-fluorobenzo[d]thiazol-4-yl)-6-chloro-8-fluoro-2-(((2R,7aS)-2-fluorotetrahydro-1H-pyrrolizin-7a(5H)-yl)methoxy)quinazolin-4-yl)-2,6-diazaspiro[3.5]nonan-6-yl)(1H-1,2,4-triazol-1-yl)methanone]	A (A: indicates that the ratio of IC50 against KrasG12D vs. IC50 against KrasG12S is 1-fold or greater)	+++ (+++ indicates greater than 20% labelling)	1 to 10 µM
Nc1nc2c(-c3c(Cl)cc4c(N5CC6(CCN(C(=O)n7cncn7)C6)C5)nc(OC[C@@]56CCCN5C[C@H](F)C6)nc4c3F)ccc(F)c2s1 [Compound A279, (2-(7-(2-amino-7-fluorobenzo[d]thiazol-4-yl)-6-chloro-8-fluoro-2-(((2R,7aS)-2-fluorotetrahydro-1H-pyrrolizin-7a(5H)-yl)methoxy)quinazolin-4-yl)-2,6-diazaspiro[3.4]octan-6-yl)(1H-1,2,4-triazol-1-yl)methanone]	A (A: indicates that the ratio of IC50 against KrasG12D vs. IC50 against KrasG12S is 1-fold or greater)	+++ (+++ indicates greater than 20% labelling)	1 to 10 µM
N#Cc1nccn1C(=O)N1CCCN(c2nc(OC[C@@]34CCCN3C[C@H](F)C4)nc3c(F)c(-c4ccc(F)c5sc(N)nc45)c(Cl)cc23)CC1 [Compound A171, 1-(4-(7-(2-amino-7-fluorobenzo[d]thiazol-4-yl)-6-chloro-8-fluoro-2-(((2R,7aS)-2-fluorotetrahydro-1H-pyrrolizin-7a(5H)-yl)methoxy)quinazolin-4-yl)-1,4-diazepane-1-carbonyl)-1H-imidazole-2-carbonitrile]	A (A: indicates that the ratio of IC50 against KrasG12D vs. IC50 against KrasG12S is 1-fold or greater)	+++ (+++ indicates greater than 20% labelling)	1 to 10 µM
Nc1nc2c(-c3c(Cl)cc4c(N5CCC56CCCN(C(=O)n5cncn5)CC6)nc(OC[C@@]56CCCN5C[C@H](F)C6)nc4c3F)ccc(F)c2s1 (stereo partly drawn) [Compound A209, (1-(7-(2-amino-7-fluorobenzo[d]thiazol-4-yl)-6-chloro-8-fluoro-2-(((2R,7aS)-2-fluorotetrahydro-1H-pyrrolizin-7a(5H)-yl)methoxy)quinazolin-4-yl)-1,7-diazaspiro[3.6]decan-7-yl)(1H-1,2,4-triazol-1-yl)methanone]	A (A: indicates that the ratio of IC50 against KrasG12D vs. IC50 against KrasG12S is 1-fold or greater)	++ (++ indicates between about 1%- 20% labelling)	1 to 10 µM
Nc1nc2c(-c3c(Cl)cc4c(N5CCOC6(CCN(C(=O)n7cncn7)C6)C5)nc(OC[C@@]56CCCN5C[C@H](F)C6)nc4c3F)ccc(F)c2s1 (stereo partly drawn) [Compound A221, (9-(7-(2-amino-7-fluorobenzo[d]thiazol-4-yl)-6-chloro-8-fluoro-2-(((2R,7aS)-2-fluorotetrahydro-1H-pyrrolizin-7a(5H)-yl)methoxy)quinazolin-4-yl)-6-oxa-2,9-diazaspiro[4.5]decan-2-yl)(1H-1,2,4-triazol-1-yl)methanone]	A (A: indicates that the ratio of IC50 against KrasG12D vs. IC50 against KrasG12S is 1-fold or greater)	++ (++ indicates between about 1%- 20% labelling)	1 to 10 µM
Nc1nc2c(-c3c(Cl)cc4c(N5CCOC6(CN(C(=O)n7cncn7)C6)C5)nc(OC[C@@]56CCCN5C[C@H](F)C6)nc4c3F)ccc(F)c2s1 [Compound A273, (8-(7-(2-amino-7-fluorobenzo[d]thiazol-4-yl)-6-chloro-8-fluoro-2-(((2R,7aS)-2-fluorotetrahydro-1H-pyrrolizin-7a(5H)-yl)methoxy)quinazolin-4-yl)-5-oxa-2,8-diazaspiro[3.5]nonan-2-yl)(1H-1,2,4-triazol-1-yl)methanone]	A (A: indicates that the ratio of IC50 against KrasG12D vs. IC50 against KrasG12S is 1-fold or greater)	+++ (+++ indicates greater than 20% labelling)	1 to 10 µM
Nc1nc2c(-c3c(Cl)cc4c(N5CC6CN(C(=O)n7cncn7)CC6C5)nc(OC[C@@]56CCCN5C[C@H](F)C6)nc4c3F)ccc(F)c2s1 (stereo partly drawn) [Compound A127, (5-(7-(2-amino-7-fluorobenzo[d]thiazol-4-yl)-6-chloro-8-fluoro-2-(((2R,7aS)-2-fluorotetrahydro-1H-pyrrolizin-7a(5H)-yl)methoxy)quinazolin-4-yl)hexahydropyrrolo[3,4-c]pyrrol-2(1H)-yl)(1H-1,2,4-triazol-1-yl)methanone]	A (A: indicates that the ratio of IC50 against KrasG12D vs. IC50 against KrasG12S is 1-fold or greater)	++ (++ indicates between about 1%- 20% labelling)	1 to 10 µM
